Assay results reported in paper PMC6711994 (Scientific Reports, 2019).

Columns and labels:
lsBSH = target: T1, lsBSH (Ligilactobacillus salivarius, UniProt J7H3P9); assay: X-ray crystal structure, […] Å, crystal soaking; type: binding; conditions: CA formed from soaked GCA; Cys2 oxidised (sulfonic form); active site of chains B, C, D, E, G and H
T1 construct: recombinant from E. coli JL885 (pBSH vector), purified; initiator Met removed, N-terminal nucleophile Cys2; homotetramer; Cys2 oxidised (sulfonic, OCS) in the crystal
T1 sequence (J7H3P9 entry or part of it): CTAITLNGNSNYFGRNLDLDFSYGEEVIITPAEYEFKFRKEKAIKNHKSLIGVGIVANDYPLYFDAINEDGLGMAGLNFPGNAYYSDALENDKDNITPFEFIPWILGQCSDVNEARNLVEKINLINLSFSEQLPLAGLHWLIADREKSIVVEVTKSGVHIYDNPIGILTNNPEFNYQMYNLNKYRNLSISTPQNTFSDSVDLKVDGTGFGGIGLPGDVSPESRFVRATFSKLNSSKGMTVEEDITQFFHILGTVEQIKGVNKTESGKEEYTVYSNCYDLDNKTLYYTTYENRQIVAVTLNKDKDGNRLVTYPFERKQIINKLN

[1] = target: bile salt hydrolase from Lactobacillus salivarius (Lactobacillus salivarius NRRL B-30514); assay: crystal structure; apo lsBSH crystals (20% PEG 3,350, 0.2 M KH2PO4 pH 4.8, 20 °C) soaked with GCA for 4 h; space group P21; two tetramers in one asymmetric unit

Row | Compound | X-ray crystal structure, 2.10 Å, crystal soaking (lsBSH) | stoichiometry N [1]
1 | C[C@H](CCC(=O)O)[C@H]1CC[C@H]2[C@@H]3[C@H](O)C[C@@H]4C[C@H](O)CC[C@]4(C)[C@H]3C[C@H](O)[C@]12C [CA, cholic acid] | The lsBSH monomers were obtained bound to substrate GCA or product CA | –
2 | bile salt hydrolase from Lactobacillus salivarius (enzyme) | – | 4
